This passage reports Kd results from PMC3432122, “An Antitubulin Agent BCFMT Inhibits Proliferation of Cancer Cells and Induces Cell Death by Inhibiting Microtubule Dynamics” (PLoS ONE, 2012).

The target of the test is T1, tubulin.
T1 construct: purified tubulin (alpha/beta heterodimer)
The test is described as follows: tryptophan fluorescence quenching titration; competition with BODIPY FL-vinblastine (Ki […]). Format: binding.

`O=C1NC(=S)S/C1=C\c1ccc(-c2ccc(Br)c(Cl)c2)o1` [BCFMT, (Z)-5-((5-(4-bromo-3-chlorophenyl)furan-2-yl)methylene)-2-thioxothiazolidin-4-one]: binding was characterised by a dissociation constant (Kd) of 8.3 ± 1.8 µM.
